#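 Grown in 96-well plates, cells were treated for 48 hours with each compound at five concentrations. Insufficient inhibition: endpoint recorded as highest concentration tested. GI50 is the concentration that inhibits growth by half.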 Active and inactive are the calls of the source. Cut-off read from the data, not from the text of the source: active = GI50 up to about 1.1 µM and inactive = higher.
# Legend:
# Test in all cases: NCI tumour cell line growth inhibition, 48 h
# KM12 = tested on: KM12
# LOX IMVI = tested on: LOX IMVI
# Malme-3M = tested on: Malme-3M
# U-251 = tested on: U-251
# OVCAR-5 = tested on: OVCAR-5
# SF-295 = tested on: SF-295
# HCT-116 = tested on: HCT-116
# HT-29 = tested on: HT-29
# NCI-H460 = tested on: NCI-H460
# UACC-257 = tested on: UACC-257
# SK-MEL-5 = tested on: SK-MEL-5
# CAKI-1 = tested on: CAKI-1
# MOLT-4 = tested on: MOLT-4
# OVCAR-3 = tested on: OVCAR-3
# OVCAR-4 = tested on: OVCAR-4
# HL-60 = tested on: HL-60
# TK-10 = tested on: TK-10
# 786-0 = tested on: 786-0
SMILES,GI50 (KM12),GI50 (LOX IMVI),GI50 (Malme-3M),GI50 (U-251),GI50 (OVCAR-5),GI50 (SF-295),GI50 (HCT-116),GI50 (HT-29),GI50 (NCI-H460),GI50 (UACC-257),GI50 (SK-MEL-5),GI50 (CAKI-1),GI50 (MOLT-4),GI50 (OVCAR-3),GI50 (OVCAR-4),GI50 (HL-60),GI50 (TK-10),GI50 (786-0)
O=NN(CCF)C(=O)NC1CCSCC1,> 100 µM (inactive),> 100 µM (inactive),> 100 µM (inactive),> 100 µM (inactive),> 100 µM (inactive),> 100 µM (inactive),> 100 µM (inactive),> 100 µM (inactive),> 100 µM (inactive),> 100 µM (inactive),> 100 µM (inactive),> 100 µM (inactive),> 100 µM (inactive),> 100 µM (inactive),> 100 µM (inactive),> 100 µM (inactive),–,–
CC1CC2=Nc3ccccc3NC(c3ccccc3)C2=C(O)O1 (configuration not stated),> 100 µM (inactive),> 100 µM (inactive),> 100 µM (inactive),> 100 µM (inactive),> 100 µM (inactive),–,> 100 µM (inactive),> 100 µM (inactive),> 100 µM (inactive),> 100 µM (inactive),> 100 µM (inactive),–,> 100 µM (inactive),> 100 µM (inactive),–,> 100 µM (inactive),> 100 µM (inactive),> 100 µM (inactive)
COc1nc(O)c(N)c(NC2OC(CO)C(O)C(O)C2O)n1 (configuration not stated),> 100 µM (inactive),> 100 µM (inactive),> 100 µM (inactive),> 100 µM (inactive),> 100 µM (inactive),> 100 µM (inactive),> 100 µM (inactive),> 100 µM (inactive),> 100 µM (inactive),> 100 µM (inactive),> 100 µM (inactive),–,> 100 µM (inactive),> 100 µM (inactive),> 100 µM (inactive),> 82.8 µM (inactive),–,–
CCC(C(C)N1CC(=O)NC(=O)C1)N1CC(=O)NC(=O)C1 (configuration not stated),> 100 µM (inactive),> 100 µM (inactive),13.4 µM (inactive),> 61.9 µM (inactive),> 25.1 µM (inactive),> 100 µM (inactive),23.4 µM (inactive),62.1 µM (inactive),0.141 µM (active),> 100 µM (inactive),12.5 µM (inactive),> 100 µM (inactive),0.69 µM (active),> 100 µM (inactive),> 100 µM (inactive),2.06 µM (inactive),–,–
CCCCSCC(NC(=O)/C=C/c1c(C)[nH]c(=O)[nH]c1=O)C(=O)OC (configuration not stated),24.9 µM (inactive),78.3 µM (inactive),15.7 µM (inactive),16.6 µM (inactive),77.1 µM (inactive),101 µM (inactive),30.3 µM (inactive),102 µM (inactive),57.5 µM (inactive),81.7 µM (inactive),64.9 µM (inactive),32.3 µM (inactive),50.1 µM (inactive),13.2 µM (inactive),13.8 µM (inactive),76.6 µM (inactive),–,–
CCN(CC)CC(C)(C)C(=O)/C=C/c1ccc(C)cc1,5.87 µM (inactive),11 µM (inactive),9.46 µM (inactive),15.3 µM (inactive),14.5 µM (inactive),13.2 µM (inactive),4.3 µM (inactive),3.86 µM (inactive),6.08 µM (inactive),–,14.2 µM (inactive),12.6 µM (inactive),3.39 µM (inactive),9.14 µM (inactive),11.6 µM (inactive),–,14.5 µM (inactive),10.7 µM (inactive)
Cc1ccccc1NC(=O)CC(=O)N1N=C(N2c3ccccc3Sc3ccccc32)CC1c1ccccc1 (configuration not stated),> 100 µM (inactive),> 100 µM (inactive),> 100 µM (inactive),> 100 µM (inactive),> 100 µM (inactive),> 100 µM (inactive),> 100 µM (inactive),> 100 µM (inactive),> 100 µM (inactive),> 100 µM (inactive),> 100 µM (inactive),> 100 µM (inactive),> 100 µM (inactive),> 100 µM (inactive),> 100 µM (inactive),–,> 100 µM (inactive),–
CSc1nc(NC(=O)O)c(N(C(C)=O)C(=O)O)c(=O)n1C,> 100 µM (inactive),> 100 µM (inactive),> 100 µM (inactive),> 100 µM (inactive),> 100 µM (inactive),> 100 µM (inactive),> 100 µM (inactive),> 100 µM (inactive),> 100 µM (inactive),> 100 µM (inactive),> 100 µM (inactive),> 100 µM (inactive),> 100 µM (inactive),> 100 µM (inactive),> 100 µM (inactive),> 100 µM (inactive),–,> 100 µM (inactive)
Cc1cc(Cl)ccc1/N=C1/NC(=O)C(CC(=O)Nc2cccc(C)c2C)S1 (configuration not stated),32.4 µM (inactive),22.3 µM (inactive),24.2 µM (inactive),26.2 µM (inactive),31.7 µM (inactive),28 µM (inactive),–,37.8 µM (inactive),31.3 µM (inactive),29.5 µM (inactive),20.4 µM (inactive),23.6 µM (inactive),24.5 µM (inactive),31.2 µM (inactive),26.7 µM (inactive),–,39.3 µM (inactive),20.8 µM (inactive)
CC1(C)c2ccccc2C(C)(C)C(C(=O)Nc2ccccc2)C1C(=O)O (configuration not stated),> 100 µM (inactive),> 100 µM (inactive),> 100 µM (inactive),> 100 µM (inactive),> 100 µM (inactive),> 100 µM (inactive),95.1 µM (inactive),> 100 µM (inactive),–,> 100 µM (inactive),> 100 µM (inactive),–,> 100 µM (inactive),> 100 µM (inactive),–,> 100 µM (inactive),> 100 µM (inactive),> 100 µM (inactive)
CCCCC1=CSC(c2ccccc2)=C(c2ccccc2)S1,42.3 µM (inactive),20.1 µM (inactive),–,30.9 µM (inactive),–,36.5 µM (inactive),6.46 µM (inactive),33.6 µM (inactive),53.1 µM (inactive),–,23.9 µM (inactive),–,8.97 µM (inactive),60.4 µM (inactive),37.6 µM (inactive),–,> 100 µM (inactive),87.5 µM (inactive)
COC1CCC(OS(C)(=O)=O)CO1 (configuration not stated),> 100 µM (inactive),–,> 100 µM (inactive),> 100 µM (inactive),42.2 µM (inactive),> 100 µM (inactive),> 100 µM (inactive),> 100 µM (inactive),> 100 µM (inactive),> 100 µM (inactive),–,–,20.6 µM (inactive),> 100 µM (inactive),> 100 µM (inactive),35 µM (inactive),–,–
N=S(c1ccccc1[N+](=O)[O-])c1ccccc1[N+](=O)[O-],6.65 µM (inactive),0.944 µM (active),3.26 µM (inactive),–,6.08 µM (inactive),–,1.5 µM (inactive),–,–,2.54 µM (inactive),3.2 µM (inactive),3.3 µM (inactive),2.61 µM (inactive),1.5 µM (inactive),0.553 µM (active),–,2.69 µM (inactive),1.95 µM (inactive)
CC1(C)CC23C4COC(=O)C2CCC1C3CC4=O (configuration not stated),12.6 µM (inactive),8.39 µM (inactive),7.21 µM (inactive),20.7 µM (inactive),32.6 µM (inactive),19.8 µM (inactive),6.71 µM (inactive),22.9 µM (inactive),11.1 µM (inactive),9.59 µM (inactive),9.86 µM (inactive),5.47 µM (inactive),5.87 µM (inactive),12.5 µM (inactive),15.2 µM (inactive),3.06 µM (inactive),–,–
CC1Cc2c(N)nc(N3CCOCC3)nc2NC1=O (configuration not stated),> 100 µM (inactive),> 100 µM (inactive),> 100 µM (inactive),> 100 µM (inactive),–,> 100 µM (inactive),> 100 µM (inactive),> 100 µM (inactive),> 100 µM (inactive),> 100 µM (inactive),> 100 µM (inactive),–,> 100 µM (inactive),> 100 µM (inactive),–,> 100 µM (inactive),> 100 µM (inactive),> 100 µM (inactive)
NC(=O)OCC1=C(COC(N)=O)C(=O)c2c(O)ccc(O)c2C1=O,> 100 µM (inactive),–,> 100 µM (inactive),> 100 µM (inactive),> 100 µM (inactive),> 100 µM (inactive),> 100 µM (inactive),> 100 µM (inactive),–,> 100 µM (inactive),48 µM (inactive),> 100 µM (inactive),55.8 µM (inactive),> 100 µM (inactive),> 100 µM (inactive),45.2 µM (inactive),> 100 µM (inactive),–
COC(=O)C1=C2CCC(=O)[C@@]2(C)C(OC(C)=O)C=CC1 (some centres not stated),> 100 µM (inactive),–,> 100 µM (inactive),59.6 µM (inactive),> 100 µM (inactive),37.1 µM (inactive),24.5 µM (inactive),> 100 µM (inactive),> 100 µM (inactive),40.5 µM (inactive),> 100 µM (inactive),> 100 µM (inactive),35.9 µM (inactive),53.6 µM (inactive),> 100 µM (inactive),29.5 µM (inactive),> 100 µM (inactive),> 100 µM (inactive)
CCCCc1ccc(-n2c3nc(=O)n(C)c(=O)c-3nc3ccccc32)cc1,11.2 µM (inactive),–,7.6 µM (inactive),10.6 µM (inactive),18.1 µM (inactive),11.1 µM (inactive),12.3 µM (inactive),3.11 µM (inactive),4.03 µM (inactive),4.01 µM (inactive),1.52 µM (inactive),18.4 µM (inactive),15.3 µM (inactive),2.86 µM (inactive),8 µM (inactive),10.6 µM (inactive),13.9 µM (inactive),16.3 µM (inactive)
